In patent US20130059903A1, “Compositions and Methods for Characterizing Breast Cancer” (THE JOHNS HOPKINS UNIVERSITY, priority 2010, published 2013):

What was measured:
Format in all cases: cell-based
ER = ER re-expression after methylation inhibitor / HDAC inhibitor treatment (qRT-PCR, immunoblot); details: MCF-7/Twist cells; 1 μM AZA, 10 μM VPA, three days; qRT-PCR and immunoblotting
Method: Cells were treated with 1 μM AZA for three days and DNA processed for demethylation studies by methylation specific quantitative PCR (MS-qPCR). Total proteins were extracted and immunoblotted to analyze the effect of demethylation on ER expression. Cells were treated with HDAC inhibitor VPA at 10 μM concentration for three days and processed similarly.

MCF-7/Twist cells [1] = assay: Dye efflux assays
Method: (§1) Semiconfluent cells were washed once with HBSS and resuspended in growth medium at 1×10^6 cells/ml and 5 μg/ml Hoechst 33342 (Sigma-Aldrich, St. Louis, Mo.) and incubated for 45 minutes at 37° C. in a constant-temperature water bath. Subsequently, the cells were washed once in cold HBSS/2% BSA and resuspended in warm medium and incubated for 45 minutes at 37° C. for efflux. Cells were centrifuged and mounted on a slide before photomicroscopy.
(§2) For Rhodamine 123 (Sigma-Aldrich) staining, cells were trypsinized and washed twice in PBS/1% FCS. One million cells were resuspended in 100 μl of PBS/1% FCS and stained with 100 to 500 ng/ml Rhodamine 123 for 15 to 30 minutes at 37° C. Cells were washed twice at room temperature, resuspended, and incubated without Rhodamine 123 for 15 to 30 minutes at 37° C. to allow for efflux to occur. Rhodamine efflux was subsequently determined by flow cytometry on a FACScan II flow cytometer.

MCF-7 cells [2] = assay: Dye efflux assays
Method: as §1, §2

MCF-7/Twist cells [3] = assay: Cell cycle analysis by flow cytometry after anti-estrogen treatment; details: 1 μM 4-hydroxytamoxifen or 1 nM fulvestrant in PRF-MEM/5% CSS, three days
Method: (§3) Cell lines were obtained from ATCC (Manassas, Va.) and maintained as instructed. Construction of MCF-7/Twist and MCF 10A/Twist cell lines have been described earlier (19, 23). For transient expression, cells were transfected using either retroviral constructs (generated in-house) or lentiviral constructs (Open Biosystems, Huntsville, Ala.). For hormone studies, cells were grown for two days in phenol-red free minimal essential media (PRF-MEM) containing 5% charcoal stripped serum (CSS). For anti-estrogen treatment, PRFMEM/5% CSS media was supplemented with 1 μM 4-hydroxytamoxifen (tamoxifen) or 1 nM fulvestrant. Three days following treatment, the cells were fixed in 70% ethanol and cell cycle analysis performed on a FacScan I (BD Biosciences, San Jose, Calif.). Independent experiments were repeated four times. Data was analyzed using FlowJo (Tree Star Inc., Ashland, Oreg.) and ModFit LT 2.0 software (Verity House Software, Topsham, Me.).

MCF-7 cells [4] = assay: as above; details: 1 μM 4-hydroxytamoxifen or 1 nM fulvestrant in PRF-MEM/5% CSS, three days
Method: as §3

[5] = 5 μg/ml Hoechst 33342, 45 minutes efflux, microscopy

## CCCC(CCC)C(=O)O [VPA, valproic acid]
ER
  ER expression (transcript and protein levels): significant increase

## CCOc1ccc(-c2nc3ccc(-c4nc5ccc(N6CCN(C)CC6)cc5[nH]4)cc3[nH]2)cc1 [Hoechst 33342]
MCF-7/Twist cells [1]; [5]
  relative fluorescence intensity per cell (dye retained after efflux): 57
MCF-7 cells [2]; [5]
  relative fluorescence intensity per cell (dye retained after efflux): 65

## Nc1ncn([C@H]2C[C@H](O)[C@@H](CO)O2)c(=O)n1 [AZA, 5-aza 2′-deoxycytidine]
ER
  ER expression (transcript and protein levels): significant increase

## Rhodamine 123
MCF-7/Twist cells [1]; Rhodamine 123, flow cytometry
  mean fluorescence intensity (dye retained after efflux): 96
MCF-7 cells [2]; Rhodamine 123, flow cytometry
  mean fluorescence intensity (dye retained after efflux): 205

## C[C@]12CC[C@@H]3c4ccc(O)cc4C[C@@H](CCCCCCCCC[S+]([O-])CCCC(F)(F)C(F)(F)F)[C@H]3[C@@H]1CC[C@@H]2O (stereo partly drawn) [fulvestrant]
MCF-7/Twist cells [3]
  G1 (percentage of cells in cell cycle phase): 67.7%
  G2/M (percentage of cells in cell cycle phase): 13.3%
  S (percentage of cells in cell cycle phase): 16.6%
MCF-7 cells [4]
  G1 (percentage of cells in cell cycle phase): 86%
  G2/M (percentage of cells in cell cycle phase): 5.8%
  S (percentage of cells in cell cycle phase): 3.9%
